In ChEMBL document CHEMBL2062434, “Isolation and structural elucidation of cyclic tetrapeptides from Onychocola sclerotica” (J Nat Prod, 2012):
Where a SMILES comes first, the peptide text is derived from it. [ ]: non-standard residue; d: D form. NMeF = CN[C@@H](Cc1ccccc1)C(=O)O

Tests used:
[1] = Inhibition of human voltage-dependent L-type calcium channel subunit alpha1C/alpha2delta/beta2a expressed in C1-6-37-3 cells assessed as inhibition of K+-induced calcium influx incubated for 30 mins prior to K+-induction by Fluo-4-AM based FLIPR assay; assay type: cell-based
[2] = Cytotoxicity against human Fa2N-4 cells after 24 hrs by MTT assay; assay type: cell-based; details: Fa2N-4, 24 h

IC50 [1] | SMILES | IC50 [2]
0.9 µM | COc1ccc(CCN(C)CCCC(C#N)(c2ccc(OC)c(OC)c2)C(C)C)cc1OC (centres undefined) | –
5 µM | CC[C@H](C)[C@@H]1NC(=O)[C@H](Cc2ccccc2)N(C)C(=O)[C@H]([C@@H](C)CC)NC(=O)[C@H](Cc2ccccc2)N(C)C1=O (cyclo(I[NMeF]I[NMeF])) | > 20 µM
7.1 µM | CC[C@H](C)[C@@H]1NC(=O)[C@H](Cc2ccccc2)N(C)C(=O)[C@H](C(C)C)NC(=O)[C@H](Cc2ccccc2)N(C)C1=O (cyclo(I[NMeF]V[NMeF])) | > 20 µM
6.2 µM | CC(C)[C@@H]1NC(=O)[C@H](Cc2ccccc2)N(C)C(=O)[C@H](C(C)C)NC(=O)[C@H](Cc2ccccc2)N(C)C1=O (cyclo([NMeF]V[NMeF]V)) | > 20 µM
2.2 µM | COc1ccc([C@@H]2Sc3ccccc3N(CCN(C)C)C(=O)[C@@H]2OC(C)=O)cc1 [DILTIAZEM] | –
0.003 µM | CCOC(=O)C1=C(C)NC(C)=C(C(=O)OC)C1c1cccc([N+](=O)[O-])c1 (centres undefined) [NITRENDIPINE] | –
